Laboratory results taken from ChEMBL document CHEMBL1201862, “PubChem BioAssay data set” (2004).
Activity calls are given as the source filed them.

Columns and labels:
[1] = Luminescent dose response cell-based high throughput screening assay for inhibitors of the Janus kinase 2 mutant JAK2V617F. [Related pubchem assays: 1446 (Primary screen.), 1521 (Confirmation assay.), 1486 (Counter screen.)]; assay type: functional
[2] = biological target: Complement C1s subcomponent (Homo sapiens, UniProt P09871); experiment: Complement C1s ELISA. [Related pubchem assays: 538, 787 ]; assay type: functional
[3] = biological target: Voltage-gated inwardly rectifying potassium channel KCNH2 (Homo sapiens, UniProt Q12809); experiment: concentration-dependent hERG rescue from blockers – cell-based, thallium flux, dose response (AID 2121); assay type: ADME
[4] = biological target: E3 ubiquitin-protein ligase Mdm2 (Homo sapiens, UniProt Q00987); experiment: MDM2-luc reporter signal enhancers, multi-concentration potency testing, MDM2 ubiquitin-protein ligase inhibitor program, whole-cell format, luminescence detection, 384-well microplate (AID 1394); assay type: functional;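 also: MDM2 E3 inhibitors raise luminescence so EC50 is for signal enhancement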
cells [5] = assay type: functional, cell-based
cells [6] = assay type: functional, cell-based; remark: listed apart in the source
[7] = biological target: T1, Kappa-type opioid receptor (Homo sapiens, UniProt P41145); assay type: functional
Beta-galactosidase = Beta-galactosidase (Escherichia coli, UniProt Q8VNN2); assay type: functional
[8] = biological target: T1, Kappa-type opioid receptor; assay type: functional; remark: listed apart in the source
[9] = Luminescence Cell-Based Dose Retest to Confirm Inhibitors of Cancer Stem Cells. [Related pubchem assays (depositor defined):AID2717, AID2721]; assay type: functional; settings: Homo sapiens
Nonstructural protein 1 = Nonstructural protein 1 (Influenza A virus, UniProt Q194T2); assay type: functional, Influenza A virus (A/California/07/2009(H1N1))
P388/ADR = experiment: cells; assay type: functional; settings: Mus musculus
SN12K1 = experiment: cells; assay type: functional; settings: Homo sapiens
P388 = experiment: cells; assay type: functional; settings: Mus musculus
[10] = rise of 2N DNA cells, HeLa – IC50, dose response (AID 1117349); assay type: functional, cell-based
[11] = SNU-C1 cell viability reduction, dose response, CellTiter-Glo luminescence (AID 1117323); assay type: functional, cell-based
[12] = rise of 4N DNA cells, HeLa – IC50, dose response (AID 1117351); assay type: functional, cell-based
[13] = biological target: Peroxisome proliferator-activated receptor gamma/Nuclear receptor corepressor 2 (Homo sapiens, UniProt P37231+Q9Y618); experiment: Counterscreen for NR2E3 inverse agonists: TR-FRET-based biochemical high throughput dose response assay to identify inverse agonists of the interaction between peroxisome proliferator-activated receptor gamma (PPARg) and nuclear receptor co-repressor 2 (NCOR2).; assay type: functional
[14] = biological target: Photoreceptor-specific nuclear receptor (Homo sapiens, UniProt Q9Y5X4); experiment: ligands suppressing NR2E3 nuclear receptor activity – biochemical, TR-FRET, dose response (AID 463256); assay type: functional
[15] = NIH-3T3 fibroblast cytotoxicity, dose response, cytotoxicity control, cell-based, fluorescence, Alamar Blue, secondary assay (AID 2327); assay type: functional;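 also: NIH-3T3 mouse fibroblasts cultured with fluconazole at 8 µg/mL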
[16] = fluconazole-exposed Candida albicans growth modulators – fluorescence, retest, confirmation (AID 2467); assay type: functional, cell-based
Ephrin type-A receptor 4 = Ephrin type-A receptor 4 (Mus musculus, UniProt Q03137); experiment: EphA4 ligand-binding antagonists – biochemical, colorimetric, mouse EphA4, primary screen (AID 689); assay type: functional
Cytochrome P450 1A2 = biological target: T2, Cytochrome P450 1A2 (Homo sapiens, UniProt P05177);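 also: PubChem cytochrome P450 panel assay, CYP1A2 panel member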
T2 sequence (P05177 whole entry): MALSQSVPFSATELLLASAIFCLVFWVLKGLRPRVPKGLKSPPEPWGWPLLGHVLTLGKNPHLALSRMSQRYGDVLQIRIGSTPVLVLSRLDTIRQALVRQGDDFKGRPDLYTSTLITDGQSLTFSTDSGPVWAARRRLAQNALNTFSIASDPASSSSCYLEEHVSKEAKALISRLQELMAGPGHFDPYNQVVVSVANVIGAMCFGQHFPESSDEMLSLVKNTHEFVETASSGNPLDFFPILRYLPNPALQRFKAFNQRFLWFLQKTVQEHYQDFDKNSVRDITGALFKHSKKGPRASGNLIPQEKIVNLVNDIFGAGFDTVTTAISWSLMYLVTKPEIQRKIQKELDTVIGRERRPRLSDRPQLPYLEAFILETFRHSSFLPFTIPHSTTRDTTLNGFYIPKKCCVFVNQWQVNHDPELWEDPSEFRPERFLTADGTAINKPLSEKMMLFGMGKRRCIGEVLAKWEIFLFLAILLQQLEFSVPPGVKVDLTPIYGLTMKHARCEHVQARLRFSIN

Cytochrome P450 2C9 = Cytochrome P450 2C9 (Homo sapiens, UniProt P11712)
[17] = biological target: T3, Low molecular weight phosphotyrosine protein phosphatase (Homo sapiens, UniProt P24666); experiment: inhibition of LMPTP-A enzymatic activity – biochemical, OMFP substrate, fluorescence intensity, set 2, dose response (AID 743307); assay type: functional
T3 sequence (P24666 whole entry): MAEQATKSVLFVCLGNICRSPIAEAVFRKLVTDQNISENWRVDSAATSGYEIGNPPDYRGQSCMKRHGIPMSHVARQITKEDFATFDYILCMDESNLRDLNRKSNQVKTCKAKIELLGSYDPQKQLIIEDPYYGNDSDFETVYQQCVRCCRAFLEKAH

[18] = biological target: T3, Low molecular weight phosphotyrosine protein phosphatase; experiment: inhibition of human LMPTP enzyme activity – biochemical, absorbance, pNPP substrate, LMPTP-A isoform, set 2, orthogonal assay, dose response (AID 743308); assay type: functional
[19] = M. tuberculosis growth inhibition, HTS (AID 449762); assay type: functional

T1 sequence (P41145 whole entry): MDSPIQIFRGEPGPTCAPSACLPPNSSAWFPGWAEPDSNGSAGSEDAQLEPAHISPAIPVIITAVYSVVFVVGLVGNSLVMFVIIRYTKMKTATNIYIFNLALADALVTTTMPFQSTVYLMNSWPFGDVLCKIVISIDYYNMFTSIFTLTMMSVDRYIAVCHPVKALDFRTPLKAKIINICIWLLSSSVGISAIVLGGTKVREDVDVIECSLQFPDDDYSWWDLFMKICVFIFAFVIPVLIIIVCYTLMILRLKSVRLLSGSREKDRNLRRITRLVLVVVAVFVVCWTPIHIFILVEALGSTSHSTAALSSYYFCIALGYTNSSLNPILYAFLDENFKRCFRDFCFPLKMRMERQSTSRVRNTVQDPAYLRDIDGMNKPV
Sequence of Complement C1s subcomponent (P09871 16-437 limits assumed): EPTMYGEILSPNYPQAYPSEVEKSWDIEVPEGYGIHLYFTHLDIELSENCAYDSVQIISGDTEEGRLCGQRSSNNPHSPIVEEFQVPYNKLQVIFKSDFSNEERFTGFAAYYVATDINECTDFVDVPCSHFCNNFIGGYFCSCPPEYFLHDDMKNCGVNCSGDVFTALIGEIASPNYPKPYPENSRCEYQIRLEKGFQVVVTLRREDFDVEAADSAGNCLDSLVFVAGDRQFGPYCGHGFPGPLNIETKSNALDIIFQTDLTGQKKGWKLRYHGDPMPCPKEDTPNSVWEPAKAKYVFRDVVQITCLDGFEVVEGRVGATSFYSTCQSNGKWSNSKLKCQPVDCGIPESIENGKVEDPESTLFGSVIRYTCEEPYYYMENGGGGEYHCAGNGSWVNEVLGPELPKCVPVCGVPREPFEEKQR
Sequence of Complement C1s subcomponent (P09871 438-688 limits assumed): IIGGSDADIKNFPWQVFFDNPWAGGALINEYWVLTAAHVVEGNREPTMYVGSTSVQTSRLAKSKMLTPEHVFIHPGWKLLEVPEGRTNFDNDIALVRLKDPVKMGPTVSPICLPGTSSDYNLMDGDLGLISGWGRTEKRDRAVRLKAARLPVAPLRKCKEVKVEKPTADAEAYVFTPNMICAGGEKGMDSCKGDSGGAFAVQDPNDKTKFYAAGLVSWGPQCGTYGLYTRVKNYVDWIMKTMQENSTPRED
Sequence of Cytochrome P450 2C9 (P11712 whole entry): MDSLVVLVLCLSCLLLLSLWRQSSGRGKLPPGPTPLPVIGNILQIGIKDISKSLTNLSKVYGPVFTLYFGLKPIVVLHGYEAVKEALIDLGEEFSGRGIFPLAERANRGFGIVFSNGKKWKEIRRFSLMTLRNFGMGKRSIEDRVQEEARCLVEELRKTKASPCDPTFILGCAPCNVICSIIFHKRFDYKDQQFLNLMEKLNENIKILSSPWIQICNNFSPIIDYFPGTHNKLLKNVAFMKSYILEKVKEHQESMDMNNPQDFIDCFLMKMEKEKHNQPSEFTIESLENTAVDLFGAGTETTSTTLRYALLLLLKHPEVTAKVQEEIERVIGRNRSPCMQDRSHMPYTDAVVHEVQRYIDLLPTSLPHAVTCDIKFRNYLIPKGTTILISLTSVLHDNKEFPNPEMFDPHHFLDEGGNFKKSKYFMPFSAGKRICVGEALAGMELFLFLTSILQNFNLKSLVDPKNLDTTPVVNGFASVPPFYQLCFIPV
Sequence of Beta-galactosidase (Q8VNN2 whole entry): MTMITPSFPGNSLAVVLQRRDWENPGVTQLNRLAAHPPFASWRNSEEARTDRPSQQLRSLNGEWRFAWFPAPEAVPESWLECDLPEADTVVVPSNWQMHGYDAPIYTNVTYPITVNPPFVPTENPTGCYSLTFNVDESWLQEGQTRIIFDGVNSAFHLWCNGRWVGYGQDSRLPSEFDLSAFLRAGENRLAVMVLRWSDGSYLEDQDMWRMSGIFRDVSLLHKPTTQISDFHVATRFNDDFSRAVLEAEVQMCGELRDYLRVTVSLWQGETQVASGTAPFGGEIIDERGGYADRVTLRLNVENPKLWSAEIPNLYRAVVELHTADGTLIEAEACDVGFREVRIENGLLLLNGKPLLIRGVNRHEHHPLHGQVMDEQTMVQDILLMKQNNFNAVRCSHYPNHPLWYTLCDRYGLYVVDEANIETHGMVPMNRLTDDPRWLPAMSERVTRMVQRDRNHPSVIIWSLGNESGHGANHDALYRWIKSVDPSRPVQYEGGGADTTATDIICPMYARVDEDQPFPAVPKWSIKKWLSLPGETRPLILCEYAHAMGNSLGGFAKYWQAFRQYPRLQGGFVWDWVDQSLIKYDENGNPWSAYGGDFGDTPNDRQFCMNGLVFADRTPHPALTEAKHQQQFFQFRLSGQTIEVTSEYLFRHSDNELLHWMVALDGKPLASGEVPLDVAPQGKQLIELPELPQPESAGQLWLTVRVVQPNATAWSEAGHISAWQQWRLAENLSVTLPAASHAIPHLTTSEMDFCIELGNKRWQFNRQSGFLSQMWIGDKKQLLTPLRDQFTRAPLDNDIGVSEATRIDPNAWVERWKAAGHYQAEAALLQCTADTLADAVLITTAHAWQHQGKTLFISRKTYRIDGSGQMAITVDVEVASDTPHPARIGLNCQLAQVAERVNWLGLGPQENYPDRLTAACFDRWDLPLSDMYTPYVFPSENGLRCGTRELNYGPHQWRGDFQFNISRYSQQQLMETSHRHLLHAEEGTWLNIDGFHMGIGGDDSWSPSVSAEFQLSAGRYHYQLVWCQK
Sequence of Voltage-gated inwardly rectifying potassium channel KCNH2 (Q12809 whole entry): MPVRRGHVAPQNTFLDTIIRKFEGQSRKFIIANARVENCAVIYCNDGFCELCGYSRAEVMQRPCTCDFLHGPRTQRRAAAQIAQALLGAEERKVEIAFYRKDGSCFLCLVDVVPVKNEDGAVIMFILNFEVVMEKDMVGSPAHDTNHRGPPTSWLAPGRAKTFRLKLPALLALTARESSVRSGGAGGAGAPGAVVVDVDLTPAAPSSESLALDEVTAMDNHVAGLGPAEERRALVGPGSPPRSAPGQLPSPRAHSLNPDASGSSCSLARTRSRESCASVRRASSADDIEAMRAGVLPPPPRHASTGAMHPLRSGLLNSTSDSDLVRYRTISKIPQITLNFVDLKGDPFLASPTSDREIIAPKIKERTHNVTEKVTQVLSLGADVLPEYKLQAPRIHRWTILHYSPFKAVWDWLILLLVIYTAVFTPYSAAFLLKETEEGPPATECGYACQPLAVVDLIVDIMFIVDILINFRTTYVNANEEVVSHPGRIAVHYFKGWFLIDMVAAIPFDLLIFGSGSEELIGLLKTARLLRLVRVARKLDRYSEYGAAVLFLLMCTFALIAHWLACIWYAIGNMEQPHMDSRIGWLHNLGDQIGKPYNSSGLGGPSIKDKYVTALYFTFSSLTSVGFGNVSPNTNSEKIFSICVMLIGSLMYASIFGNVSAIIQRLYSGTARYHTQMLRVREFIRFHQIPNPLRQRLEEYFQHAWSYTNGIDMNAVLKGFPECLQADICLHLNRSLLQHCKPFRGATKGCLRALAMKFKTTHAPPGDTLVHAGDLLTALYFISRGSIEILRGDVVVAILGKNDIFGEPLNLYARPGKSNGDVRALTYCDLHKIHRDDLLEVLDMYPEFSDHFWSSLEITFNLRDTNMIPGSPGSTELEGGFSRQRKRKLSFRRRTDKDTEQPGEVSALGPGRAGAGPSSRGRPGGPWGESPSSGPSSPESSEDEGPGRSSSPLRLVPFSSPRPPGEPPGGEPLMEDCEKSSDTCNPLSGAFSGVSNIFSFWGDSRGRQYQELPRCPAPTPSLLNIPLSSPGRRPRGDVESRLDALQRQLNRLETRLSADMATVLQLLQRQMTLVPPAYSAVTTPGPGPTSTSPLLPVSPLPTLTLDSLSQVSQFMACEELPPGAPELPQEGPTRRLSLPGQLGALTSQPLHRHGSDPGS
Sequence of Photoreceptor-specific nuclear receptor (Q9Y5X4 whole entry): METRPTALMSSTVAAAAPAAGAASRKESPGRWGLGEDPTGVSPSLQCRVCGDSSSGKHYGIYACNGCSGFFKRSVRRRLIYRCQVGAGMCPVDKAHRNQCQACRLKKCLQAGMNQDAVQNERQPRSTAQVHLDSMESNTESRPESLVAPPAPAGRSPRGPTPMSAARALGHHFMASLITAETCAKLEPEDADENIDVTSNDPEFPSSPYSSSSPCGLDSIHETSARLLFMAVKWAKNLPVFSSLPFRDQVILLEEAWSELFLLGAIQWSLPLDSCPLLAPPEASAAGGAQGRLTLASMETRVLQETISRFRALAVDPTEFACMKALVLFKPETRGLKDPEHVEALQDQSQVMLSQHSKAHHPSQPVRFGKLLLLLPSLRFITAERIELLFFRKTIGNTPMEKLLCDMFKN
Sequence of E3 ubiquitin-protein ligase Mdm2 (Q00987 whole entry): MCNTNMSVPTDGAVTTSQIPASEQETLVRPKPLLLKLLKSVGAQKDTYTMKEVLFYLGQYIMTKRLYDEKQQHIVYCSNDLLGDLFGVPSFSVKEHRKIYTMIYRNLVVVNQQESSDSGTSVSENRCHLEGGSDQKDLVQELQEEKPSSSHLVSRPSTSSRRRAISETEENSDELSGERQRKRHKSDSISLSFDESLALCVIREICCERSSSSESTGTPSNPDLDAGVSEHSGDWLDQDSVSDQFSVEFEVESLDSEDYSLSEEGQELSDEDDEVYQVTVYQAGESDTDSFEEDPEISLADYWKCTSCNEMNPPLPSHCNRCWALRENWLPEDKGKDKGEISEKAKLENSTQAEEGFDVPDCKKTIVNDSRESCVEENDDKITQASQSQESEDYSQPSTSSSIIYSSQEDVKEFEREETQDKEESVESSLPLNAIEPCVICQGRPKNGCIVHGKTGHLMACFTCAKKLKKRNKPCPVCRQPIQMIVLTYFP
Sequence of Nonstructural protein 1 (Q194T2 whole entry): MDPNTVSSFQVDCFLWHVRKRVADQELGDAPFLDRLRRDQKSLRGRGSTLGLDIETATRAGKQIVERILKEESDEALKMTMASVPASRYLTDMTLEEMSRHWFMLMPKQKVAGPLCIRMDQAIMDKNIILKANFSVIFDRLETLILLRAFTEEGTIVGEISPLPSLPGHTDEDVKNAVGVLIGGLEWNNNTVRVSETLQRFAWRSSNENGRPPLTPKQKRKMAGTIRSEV

SMILES: O=S(=O)(c1cnc(Cl)c(Cl)c1)N1CCc2ccccc21
- IC50 [1]: 3.96 µM (active)

SMILES: O=c1c(-c2ccco2)[n+]([O-])c2ccccc2n1OCc1ccccn1
- IC50 [2]: > 50 µM (not active)

SMILES: C=CCN(CC=C)C(=S)NC(=O)/C=C/c1ccc(OC)cc1
- EC50 [3]: 3.01 µM (active)

SMILES: O=C(CSC1=NNC(c2ccccn2)S1)Nc1ccc(C(F)(F)F)cc1 (configuration not stated)
- EC50 [4]: 43.2 µM (not active)
- EC50 (cells [5]): 15.6 µM (active)
- EC50 (cells [6]): > 350 µM (not active)
- IC50 [7]: > 31.5 µM (inactive)
- EC50 (Beta-galactosidase): > 31.5 µM (inactive)
- IC50 [8]: > 32 µM
- AC50 [9]: 3.51 µM (active)
- IC50 (Nonstructural protein 1): 7.8 µM (active)

SMILES: CN(Cc1cnc2nc(N)nc(N)c2n1)c1ccc(C(=O)N[C@@H](CCC(=O)O)C(=O)O)cc1 [METHOTREXATE]
- GI50 (P388/ADR): 0.025 µM (active)
- GI50 (SN12K1): 0.025 µM (active)
- GI50 (P388): 0.025 µM (active)
- IC50 [10]: > 10 µM (inactive)
- IC50 [11]: > 20 µM (inactive)
- IC50 [12]: > 10 µM (inactive)

SMILES: O=C(Nc1nccs1)c1cc(-c2ccccn2)nc2c(Cl)cccc12
- IC50 [13]: 2.89 µM (active)
- IC50 [14]: 3.87 µM (active)

SMILES: O=C(O)c1ccccc1C(=O)NNc1ccc(F)cc1
- EC50 [15]: 25.5 µM (active)
- EC50 [16]: > 38 µM (not active)
- IC50 (Ephrin type-A receptor 4): > 100 µM (not active)
- AC50 (Cytochrome P450 1A2): 20 µM (inconclusive)
- AC50 (Cytochrome P450 2C9): 0.0251 µM (inconclusive)

SMILES: c1ccc(-c2nc(N3CCSCC3)c3ccccc3n2)cc1
- IC50 [17]: > 80 µM (inactive)
- IC50 [18]: > 80 µM (inactive)

SMILES: CC1(c2ccc(Cl)c(Cl)c2)N=C(S)N2C1N=C(S)N2c1ccccc1 (configuration not stated)
- IC50 [19]: > 100 µM (active)
